{"source": "patent US20090076092A1", "about": "“METHOD FOR DISRUPTING REPRODUCTIVE PERFORMANCE OF ARTHROPODS” (priority 2006, published 2009)", "key": {"[1]": {"test_system": "diamondback moth (Plutella xylostella)", "experiment": "Test G: number of eggs (fecundity) of adult diamondback moth", "assay_type": "in vivo", "conditions": "10 ppm, control itself gave very few eggs", "excerpt": "For evaluating the reproductive performance effects on diamondback moth (Plutella xylostella), a minimum of 120 larvae of diamondback moth of each sex were used. Male and female individuals of late instar larvae were separated and caged in individual containers containing Chinese kale. Male diamondback moths were identified by a white dot on the abdomen at the late instar larval stage. When pupae emerged, each pupa was caged separately until it emerged as adult.\n(§1) In addition, a control without test compound was included.\nGroups of 40 newly emerged (<24 hours) moths of the same sex were placed inside a meshed cage. The caged adult moths were then sprayed with the test solution, using a CO2 backpack sprayer at 500 L/Ha. For the control treatment, the adults were sprayed with water at a similar spray volume. The groups of treated individuals were then transferred into a clean container with a source of adult diet (i.e. a cotton wick soaked in 10% sucrose solution). Separate containers were used for different groups of treated insects. One day after treatment, the numbers of live, moribund and dead adults were counted. One live treated male and one live treated female were placed together in a copulation cage, which was a 300 mL clear plastic cup covered with nylon screen supplied with an adult diet source of 10% sucrose solution.\nEach pair of virgin adults was a replicate, and each treatment consisted of 10 to 20 replicates. Every day each pair of moths was moved to a new cup supplied with a diet of 10% sucrose solution.\nThe number of eggs laid per female moth was counted daily during the two days when the female moths actively produced viable eggs. The results, listed in Table G, indicate that no meaningful comparative information can be inferred, as the even the Control provided very few eggs per female moth; this indicates a systemic reproduction problem from unknown causes. However, had the Control worked, we expect to see the reproductive performance effects on diamondback moth."}, "housefly": {"test_system": "housefly", "experiment": "Dose-finding test for sub-lethal dose on housefly", "assay_type": "in vivo, Musca domestica", "conditions": "probit analysis extrapolation from preliminary dose-response curves at 50, 100, 500 and 1000 ppm", "excerpt": "(§2) The sub-lethal concentrations or doses used in the various tests for the specific pest species and populations tested in the context of the present invention were estimated from multiple-rate, dose-finding tests to determine the control rates and activity break rates. […] Therefore, depending on the target pest species, either the LC50 or a suitable concentration between LC50 and LC20 was selected as the sub-lethal dose. The specific procedures used to select the respective doses are described in each Test.\n(§3) The LC20 sub-lethal dose of Compound 2 on the housefly was estimated to be 2 ppm using probit analysis extrapolation based on the preliminary dose-response curves obtained at concentrations of 50, 100, 500 and 1000 ppm. Two treatments consisted of Compound 2 at 2 ppm and a control without test compound. Each treatment had 10 replicates."}, "adult thrips": {"test_system": "adult thrips", "experiment": "Previous study of adult thrips mortality", "assay_type": "in vivo, Frankliniella occidentalis", "conditions": "read-out: adult mortality", "excerpt": "as §2\nThus, the sub-lethal concentration of Compound 2 was selected to be 10 ppm in the test treatments. Test solutions were prepared by diluting with water to the selected concentration. Treatments included Compound 2 at 10 ppm as well as a control without test compound."}, "[2]": {"test_system": "green peach aphid (Myzus persicae Sulzer)", "experiment": "Test B: nymph production by green peach aphid after 24 hours exposure on treated radish plants", "assay_type": "in vivo", "conditions": "for Living (%) / On plant (%): 1 DAT; for Living (%): all aphids alive 24 h after treatment; for On plant (%): all aphids on the treated plant", "method": "For evaluating reproductive performance effects on green peach aphid (Myzus persicae Sulzer), each test unit consisted of a radish plant grown in a 6 cm×6 cm square pot infested with a mixed population (nymphs and adults) of green peach aphids from a laboratory-reared culture. Each plant was infested with about 100 aphids. Test solutions were prepared and sprayed on the test plants (2 plants per treatment) as described for TEST A. Treatments included Compound 1 at 100 and 500 ppm, Compound 2 at 4 and 6 ppm, and a control without test compound.\nAphids were kept on the treated plants for 24 hours, and then only adult aphids staying on the treated plant were transferred to untreated radish plants grown singly in a 6 cm×6 cm square pots. One test unit or one replicate consisted of a single adult aphid on a radish plant in a pot. The number of nymphs in each replicate was counted 4 and 6 days after treatment. At the higher concentration of each test compound a total of 45 replicates were used, and at the lower concentration of each test compound a total of 30 replicates were used. In addition, prior to transferring aphids singly to the untreated radish plants one day after treatment (1 DAT), the total number of aphids living and those remaining on the treated plant were counted.\nThe results are listed in Table B. Square-root transformation was done on the number of nymphs produced per adult (female) aphid, and the data were analyzed using analysis of variance (ANOVA) and Fisher's Least Significant Difference (LSD) tests for separation of means."}, "[3]": {"test_system": "housefly, Musca domestica (L.)", "experiment": "Test A: reproductive performance of adult houseflies after spray at sub-lethal concentration", "assay_type": "in vivo", "conditions": "2 ppm spray of adults; totaled on the 8th day after treatment", "excerpt": "For evaluating housefly, Musca domestica (L.), each test unit consisted of a pair of virgin adult female and male houseflies of similar age (±1 day). To obtain the adult flies used in the study, pupae of approximately the same age (±1 day) were separated by sex, and placed in separate containers until adults emerged.\nas §3\nAfter emergence, the adult houseflies were placed in a meshed cage and were sprayed with test solutions using a belt sprayer. Test solutions were applied using a compressed air-propelled (moving) belt sprayer equipped with an 8001E Tee Jet flat fan spray nozzle. The nozzles were positioned at about 20 cm above the test unit, and calibrated at 276 kPa to deliver volumes equivalent to 500 L/ha. […]\nObservations of the number of eggs laid per adult female were made daily for 7 days. The cotton wicks containing eggs were removed daily and counted, and then kept in a growth chamber at 26° C., 75% relative humidity and 16 hours of light per day to allow egg hatching and emergence of neonates. […]"}, "diamondback moth": {"test_system": "diamondback moth", "experiment": "Previous laboratory studies of diamondback moth mortality", "assay_type": "in vivo", "conditions": "Plutella xylostella, read-out: mortality of the diamondback moth (LC20)", "excerpt": "as §2, §1"}}}
{"smiles": "CNC(=O)c1cc(C#N)cc(C)c1NC(=O)c1cc(Br)nn1-c1ncccc1Cl", "note": "[Compound 2, 3-bromo-1-(3-chloro-2-pyridinyl)-N-[4-cyano-2-methyl-6-[(methylamino)-carbonyl]phenyl]-1H-pyrazole-5-carboxamide]", "values": [{"measurement": "No. of eggs per female moth", "setting": "[1]; 1 DAT", "result": 0}, {"measurement": "No. of eggs per female moth", "setting": "[1]; 2 DAT", "result": 0.2}, {"measurement": "LC20 sub-lethal dose", "setting": "housefly", "result": 2, "unit": "ppm"}, {"measurement": "mortality at 10 ppm", "setting": "adult thrips", "result": "< 50", "unit": "%"}, {"measurement": "living aphids that did not stay on the plant", "setting": "[2]; 4 and 6 ppm, one day after treatment", "result": "28-48%"}, {"measurement": "Living (%)", "setting": "[2]; 4 ppm", "result": 97.6, "unit": "%"}, {"measurement": "On plant (%)", "setting": "[2]; 4 ppm", "result": 72.0, "unit": "%"}, {"measurement": "No. of nymphs (mean ± SE)", "setting": "[2]; 4 ppm, 6 DAT, per adult", "result": "6.1 ± 0.6", "unit": "a"}, {"measurement": "Living (%)", "setting": "[2]; 6 ppm", "result": 82.3, "unit": "%"}, {"measurement": "On plant (%)", "setting": "[2]; 6 ppm", "result": 51.1, "unit": "%"}, {"measurement": "Mean number of neonates per female", "setting": "[3]", "result": 16.7}, {"measurement": "mortality at 10 ppm", "setting": "diamondback moth", "result": "~20", "unit": "%"}]}
